# According to patent publication US20230096028A1, “BICYCLIC HETEROCYCLYL COMPOUNDS AND USES THEREOF” (Revolution Medicines, Inc., priority 2019, published 2023):
# Biological target: T1, SOS1 (Homo sapiens, UniProt Q07889)
# T1 construct: SOS1 (Cytoskeleton Inc., Cat. CS-GE02); purchased Cytoskeleton Inc. CS-GE02
# T1 sequence (Q07889 564-1049 limits assumed): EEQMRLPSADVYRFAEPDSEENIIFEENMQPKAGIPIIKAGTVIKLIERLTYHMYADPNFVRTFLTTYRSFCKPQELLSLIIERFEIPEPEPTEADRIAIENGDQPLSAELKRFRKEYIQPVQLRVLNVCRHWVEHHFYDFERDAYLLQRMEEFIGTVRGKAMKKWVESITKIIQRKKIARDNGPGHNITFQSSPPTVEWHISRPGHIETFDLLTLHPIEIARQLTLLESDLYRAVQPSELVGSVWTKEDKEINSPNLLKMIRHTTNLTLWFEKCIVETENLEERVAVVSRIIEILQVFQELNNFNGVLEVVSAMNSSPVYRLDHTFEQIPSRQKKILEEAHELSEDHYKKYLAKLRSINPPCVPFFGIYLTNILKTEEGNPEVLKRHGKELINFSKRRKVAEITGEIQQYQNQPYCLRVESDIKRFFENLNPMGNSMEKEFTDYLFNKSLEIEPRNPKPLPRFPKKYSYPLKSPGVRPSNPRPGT
# Test: Bodipy-FL-GTP Association Assay (SOS1-mediated exchange of KRAS-4B:GDP to KRAS-4B:GTP)
# Format: biochemical
# Conditions: SOS1-mediated BODIPY FL GTP exchange on KRAS-4B, 22° C.
# Experimental: A low IC50 value for a given compound is indicative of high potency of said compound in inhibiting the guanine nucleotide exchange factor (GEF) activity of SOS1 on KRAS-4B in this assay setting.
# Reagents: BODIPY FL GTP (ThermoFisher Scientific, Cat. G12411); KRAS4-B (Cytoskeleton Inc., Cat. CSRS03); SOS1 (Cytoskeleton Inc., Cat. CS-GE02); 2×Assay Buffer: 40 mM Tris-HCl, pH 7.5; 100 mM NaCl; 20 mM MgCl2; 0.1 mg/mL BSA; 0.02% NP-40
# Assay Procedure: Test compounds were dissolved in DMSO to create 20 mM master stocks. The stocks were diluted in a 3× dilution series in 100% DMSO to achieve 100× compound stocks. A 1 μl spot of each test compound stock was delivered to two adjacent wells of a 96-well assay plate prior to running the assay. Reaction Mix preparation: The following were mixed in order at room temperature to obtain the “Reaction Mix” (5.75 mL 2× Exchange Buffer; 3.22 mL MilliQ ddH2O; 3 μL 5 mM BODIPY FL GTP; 230 μL 50 μM KRAS-4B; 9.203 mL Total volume. Reaction initiation: 80 μL of Reaction Mix was pipetted into each well of a half-area black 96-well plate (Corning, Cat. 3686) containing either a 1 μL spot of DMSO or a 1 μL spot test compound at the concentrations listed above. 20 μL of 1 μM SOS1 was then added to each well to initiate the reaction. For the no GEF control wells this was replaced with 1× exchange buffer. Kinetic measurement: The reaction was monitored in a SpectraMax M2 Microplate Reader (Molecular Devices) under the following protocol: 5 second rapid circular mixing before first read; 61 readings, 30 seconds apart; Assay temperature: 22° C.; Excitation wavelength: 485 nm; Emission wavelength: 513 nm. Data Analysis: The Vmax values for the SOS1-mediated BODIPY FL GTP exchange curves in the presence of test compounds were normalized to the most dilute test sample columns or DMSO only control wells to give the % Activity for each concentration of test compound. Plots of % Activity vs. the Log 10 of the compound concentration were fit by non-linear regression to a 4-parameter logistic model.
row,IC50 [nM],SMILES
1,< 1000,"C[C@@H](Nc1nc(Cl)nc2c1CN(C(=O)C1CCOC1)C2)c1cc(N)cc(C(F)(F)F)c1 (stereo partly drawn) [Example 5, N-[(1R)-1-[3-amino-5-(trifluoromethyl)phenyl]ethyl]-2-chloro-6-(oxolane-3-carbonyl)-5H,6H,7H-pyrrolo[3,4-d]pyrimidin-4-amine]"
2,1000 to 5000,C[C@@H](Nc1nc(Cl)nc2c1CN([C@H]1CC[C@H](C(=O)N(C)C)CC1)C2)c1cc(N)cc(C(F)(F)F)c1 [Example 19]
3,1000 to 5000,"C[C@@H](Nc1nc(Cl)nc2c1CN([C@H]1CC[C@@H](C(=O)N(C)C)CC1)C2)c1cc(N)cc(C(F)(F)F)c1 [Example 10, cis-4-(4-{[(1R)-1-[3-amino-5-(trifluoromethyl)phenyl]ethyl]amino}-2-chloro-5H,6H,7H-pyrrolo[3,4-d]pyrimidin-6-yl)-N,N-dimethylcyclohexane-1-carboxamide]"
4,> 5000,"C[C@@H](Nc1nc(Cl)nc2c1CN([C@H]1CC[C@H](O)CC1)C2)c1cc(N)cc(C(F)(F)F)c1 [Example 9, trans-4-(4-{[(1R)-1-[3-amino-5-(trifluoromethyl)phenyl]ethyl]amino}-2-chloro-5H,6H,7H-pyrrolo[3,4-d]pyrimidin-6-yl)cyclohexan-1-ol]"
5,1000 to 5000,"C[C@@H](Nc1nc(Cl)nc2c1CCN(C(=O)C1CCOC1)CC2)c1cc(N)cc(C(F)(F)F)c1 (stereo partly drawn) [Example 7, N-[(1R)-1-[3-amino-5-(trifluoromethyl)phenyl]ethyl]-2-chloro-7-(oxolane-3-carbonyl)-5H,6H,7H,8H,9H-pyrimido[4,5-d]azepin-4-amine]"
6,1000 to 5000,"Cc1nc2c(c(N[C@H](C)c3cc(N)cc(C(F)(F)F)c3)n1)CN(C(=O)[C@H]1CCOC1)CC2 [Example 6, N-[(1R)-1-[3-amino-5-(trifluoromethyl)phenyl]ethyl]-2-methyl-6-(oxolane-3-carbonyl)-5H,6H,7H,8H-pyrido[4,3-d]pyrimidin-4-amine]"
7,1000 to 5000,Cc1nc2c(c(N[C@H](C)c3cc(N)cc(C(F)(F)F)c3)n1)CN(CC1CCOC1)C2 (some centres unmarked) [Example 13]
8,1000 to 5000,C[C@@H](Nc1nc(Cl)nc2c1CCN(CC1CCOC1)CC2)c1cc(N)cc(C(F)(F)F)c1 (some centres unmarked) [Example 11]
9,< 1000,Cc1nc2c(c(N[C@H](C)c3cc(N)cc(C(F)(F)F)c3)n1)CN(CC1CCOC1)CC2 (some centres unmarked) [Example 12]
10,< 1000,COc1nc2c(c(N[C@H](C)c3cc(N)cc(C(F)(F)F)c3)n1)CN(C(=O)N1CCOCC1)C2 [Example 14]

row,SMILES,IC50 [nM]
1,Cc1nc2c(c(N[C@H](C)c3cc(N)cc(C(F)(F)F)c3)n1)CN(C(=O)C1CCN(C)CC1)C2 [Example 21],< 1000
2,C[C@@H](Nc1nc(Cl)nc2c1CN(C(=O)C1CCN(C)CC1)C2)c1cc(N)cc(C(F)(F)F)c1 [Example 18],< 1000

# Tested on: NCI-H358 xenograft
# Test: In vivo tumor cell growth, NSCLC NCI-H358 xenograft model
# Parameters: species or system female balb/c athymic nude mice
# Conditions: 10 mg/kg, repeated daily dosing, single agent
# Experimental: Objective: To evaluate the efficacy of the SOS1 inhibitor Compound A alone and in combination with a KRAS G12C inhibitor MRTX1257 following oral administration in the human non-small cell lung cancer (NSCLC) NCI-H358 xenograft model in nude mice.
# Methods: The effect of a SOS1 inhibitor of the present invention (Compound A) on tumor cell growth in vivo was evaluated in the NSCLC NCI-H358 xenograft model using female balb/c athymic nude mice (6-8 weeks old). Mice were implanted with H358 tumor cells in 50% matrigel (5^e6 cells/mouse) subcutaneously in the flank. Once tumors reached an average size of ˜200 mm^3, mice were randomized to treatment groups and administration of test article or vehicle (2% HPMC, 0.1% tween in 50 mM sodium citrate buffer pH 4). Body weight and tumor volume (using digital calipers) were measured twice a week until study endpoints. Compounds were administered by oral gavage daily.
row,SMILES,"tumor growth inhibition, TGI [%]"
1,C=CC(=O)N1CCN(c2nc(OC[C@@H]3CCCN3C)nc3c2CCN(c2cccc4cccc(C)c24)C3)C[C@@H]1CC#N [MRTX1257],76

# Same assay, conditions: 50 mg/kg, H358 model
row,SMILES,tumor response
1,C=CC(=O)N1CCN(c2nc(OC[C@@H]3CCCN3C)nc3c2CCN(c2cccc4cccc(C)c24)C3)C[C@@H]1CC#N [MRTX1257],achieved regressions
